Results on nine molecules are retold here after US10081635B2, “Substituted N-(pyrrolidine-3-yl)-7H-pyrrolo[2,3-D]pyrimidine-4-amine as janus kinase inhibitor” (YANG JI CHEMICAL CO., LTD., priority 2014, dated 2018).

Common to all, as to type: biochemical
The target of test [1] is Human TYK2 (Homo sapiens (Human), UniProt P29597). The test can be described thus: In vitro kinase inhibition test, TYK2 (33P-ATP filter scintillation). The settings on record: compound at 1 uM; read-out: TYK2 kinase-phosphorylation inhibitory level (% inhibition).
In test [2] the target is Human JAK1 (Homo sapiens (Human), UniProt P23458). The test can be described thus: In vitro kinase inhibition test, JAK1 (33P-ATP filter scintillation). The settings on record: compound at 1 uM; read-out: JAK1 kinase-phosphorylation inhibitory level (% inhibition).
The target of test [3] is Human JAK2 (Homo sapiens (Human), UniProt O60674). Briefly: In vitro kinase inhibition test, JAK2 (33P-ATP filter scintillation). The settings on record: compound at 1 uM; read-out: JAK2 kinase-phosphorylation inhibitory level (% inhibition).
Test [4] addresses Human JAK3 (Homo sapiens (Human), UniProt P52333). The test can be described thus: In vitro kinase inhibition test, JAK3 (33P-ATP filter scintillation). The settings on record: compound at 1 uM; read-out: JAK3 kinase-phosphorylation inhibitory level (% inhibition).

Sequence of Human JAK1 (P23458 whole entry): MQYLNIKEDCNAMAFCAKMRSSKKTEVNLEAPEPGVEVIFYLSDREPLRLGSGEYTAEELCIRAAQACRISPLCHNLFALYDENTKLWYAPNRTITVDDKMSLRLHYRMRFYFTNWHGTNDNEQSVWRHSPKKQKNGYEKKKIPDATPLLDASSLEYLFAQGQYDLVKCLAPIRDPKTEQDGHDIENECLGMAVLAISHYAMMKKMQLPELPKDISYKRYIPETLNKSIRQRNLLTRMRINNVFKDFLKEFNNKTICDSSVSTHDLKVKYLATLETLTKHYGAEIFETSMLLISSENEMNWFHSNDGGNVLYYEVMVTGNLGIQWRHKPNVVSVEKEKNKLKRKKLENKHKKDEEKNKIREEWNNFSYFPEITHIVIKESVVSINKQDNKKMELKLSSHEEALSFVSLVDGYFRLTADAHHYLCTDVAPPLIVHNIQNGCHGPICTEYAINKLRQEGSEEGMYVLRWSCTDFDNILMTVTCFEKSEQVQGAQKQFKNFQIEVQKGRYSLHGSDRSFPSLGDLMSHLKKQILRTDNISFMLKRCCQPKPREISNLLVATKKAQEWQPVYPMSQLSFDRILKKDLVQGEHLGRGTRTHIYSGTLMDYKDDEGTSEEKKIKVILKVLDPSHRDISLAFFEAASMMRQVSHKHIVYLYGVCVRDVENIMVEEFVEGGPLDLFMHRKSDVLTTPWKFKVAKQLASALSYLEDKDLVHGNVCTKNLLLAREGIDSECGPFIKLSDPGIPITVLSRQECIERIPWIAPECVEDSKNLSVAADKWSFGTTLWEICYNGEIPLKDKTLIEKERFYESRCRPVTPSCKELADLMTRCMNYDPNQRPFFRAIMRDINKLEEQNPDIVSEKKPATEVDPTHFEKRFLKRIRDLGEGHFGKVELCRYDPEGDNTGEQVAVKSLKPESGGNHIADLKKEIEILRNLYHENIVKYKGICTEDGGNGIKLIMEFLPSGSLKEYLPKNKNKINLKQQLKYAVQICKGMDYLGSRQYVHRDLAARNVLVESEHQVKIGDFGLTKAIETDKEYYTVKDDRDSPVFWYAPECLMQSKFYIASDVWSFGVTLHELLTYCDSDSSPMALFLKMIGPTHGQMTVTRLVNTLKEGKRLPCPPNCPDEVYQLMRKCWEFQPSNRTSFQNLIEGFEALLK
Sequence of Human JAK2 (O60674 whole entry): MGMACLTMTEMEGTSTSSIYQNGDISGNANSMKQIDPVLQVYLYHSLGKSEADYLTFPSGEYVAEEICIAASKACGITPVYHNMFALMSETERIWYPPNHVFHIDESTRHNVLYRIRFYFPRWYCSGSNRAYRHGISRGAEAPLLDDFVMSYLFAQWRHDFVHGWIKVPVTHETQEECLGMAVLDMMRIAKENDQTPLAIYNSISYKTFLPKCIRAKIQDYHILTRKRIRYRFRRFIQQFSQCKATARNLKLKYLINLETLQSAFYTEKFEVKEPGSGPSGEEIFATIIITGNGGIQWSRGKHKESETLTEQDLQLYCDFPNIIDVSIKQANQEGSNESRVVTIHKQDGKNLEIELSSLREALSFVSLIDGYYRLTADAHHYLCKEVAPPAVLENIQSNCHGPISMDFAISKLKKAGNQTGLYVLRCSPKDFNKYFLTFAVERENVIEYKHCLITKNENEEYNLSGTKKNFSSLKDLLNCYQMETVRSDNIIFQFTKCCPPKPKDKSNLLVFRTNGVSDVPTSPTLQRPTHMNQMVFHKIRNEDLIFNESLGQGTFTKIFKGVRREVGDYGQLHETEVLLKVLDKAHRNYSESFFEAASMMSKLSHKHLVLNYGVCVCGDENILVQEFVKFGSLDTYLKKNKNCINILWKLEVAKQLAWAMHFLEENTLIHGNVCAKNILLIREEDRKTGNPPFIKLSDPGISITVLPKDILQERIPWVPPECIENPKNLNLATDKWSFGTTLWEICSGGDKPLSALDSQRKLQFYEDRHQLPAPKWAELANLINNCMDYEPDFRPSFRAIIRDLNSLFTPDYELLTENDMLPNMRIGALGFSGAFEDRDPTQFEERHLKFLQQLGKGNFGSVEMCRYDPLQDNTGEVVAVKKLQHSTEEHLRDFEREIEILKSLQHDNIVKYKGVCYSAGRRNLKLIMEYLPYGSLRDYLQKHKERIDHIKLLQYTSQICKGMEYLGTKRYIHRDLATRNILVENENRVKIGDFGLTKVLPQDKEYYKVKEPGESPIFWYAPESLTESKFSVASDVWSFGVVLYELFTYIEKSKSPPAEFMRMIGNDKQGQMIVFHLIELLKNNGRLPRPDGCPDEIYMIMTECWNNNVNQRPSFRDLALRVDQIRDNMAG
Sequence of Human JAK3 (P52333 whole entry): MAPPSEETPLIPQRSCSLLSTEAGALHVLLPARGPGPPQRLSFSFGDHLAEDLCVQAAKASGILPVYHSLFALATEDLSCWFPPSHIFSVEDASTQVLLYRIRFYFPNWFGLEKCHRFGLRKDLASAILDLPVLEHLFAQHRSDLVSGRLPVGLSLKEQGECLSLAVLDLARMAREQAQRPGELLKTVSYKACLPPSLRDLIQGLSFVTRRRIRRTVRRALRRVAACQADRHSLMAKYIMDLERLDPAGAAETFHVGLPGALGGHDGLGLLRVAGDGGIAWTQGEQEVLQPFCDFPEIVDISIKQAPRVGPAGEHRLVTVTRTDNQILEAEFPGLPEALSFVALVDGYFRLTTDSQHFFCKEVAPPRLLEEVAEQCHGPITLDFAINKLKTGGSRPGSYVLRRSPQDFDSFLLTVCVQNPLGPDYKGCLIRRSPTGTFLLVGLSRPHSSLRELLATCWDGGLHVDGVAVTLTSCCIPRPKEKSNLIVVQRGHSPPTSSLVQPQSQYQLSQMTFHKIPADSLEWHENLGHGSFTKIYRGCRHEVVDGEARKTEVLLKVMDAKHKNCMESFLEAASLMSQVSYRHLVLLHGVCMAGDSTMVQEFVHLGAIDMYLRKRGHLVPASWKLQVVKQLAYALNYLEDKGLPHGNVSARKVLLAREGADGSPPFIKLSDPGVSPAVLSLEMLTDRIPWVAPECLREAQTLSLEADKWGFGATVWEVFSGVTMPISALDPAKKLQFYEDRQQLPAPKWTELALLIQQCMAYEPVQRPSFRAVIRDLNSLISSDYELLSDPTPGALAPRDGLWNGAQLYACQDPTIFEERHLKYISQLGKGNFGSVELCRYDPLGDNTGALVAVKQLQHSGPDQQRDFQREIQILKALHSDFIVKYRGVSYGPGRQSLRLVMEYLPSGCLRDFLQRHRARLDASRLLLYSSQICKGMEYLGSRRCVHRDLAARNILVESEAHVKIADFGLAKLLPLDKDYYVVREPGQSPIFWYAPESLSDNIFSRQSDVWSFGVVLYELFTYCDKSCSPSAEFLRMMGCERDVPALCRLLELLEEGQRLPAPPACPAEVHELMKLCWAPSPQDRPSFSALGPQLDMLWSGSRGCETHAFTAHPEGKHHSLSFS
Sequence of Human TYK2 (P29597 whole entry): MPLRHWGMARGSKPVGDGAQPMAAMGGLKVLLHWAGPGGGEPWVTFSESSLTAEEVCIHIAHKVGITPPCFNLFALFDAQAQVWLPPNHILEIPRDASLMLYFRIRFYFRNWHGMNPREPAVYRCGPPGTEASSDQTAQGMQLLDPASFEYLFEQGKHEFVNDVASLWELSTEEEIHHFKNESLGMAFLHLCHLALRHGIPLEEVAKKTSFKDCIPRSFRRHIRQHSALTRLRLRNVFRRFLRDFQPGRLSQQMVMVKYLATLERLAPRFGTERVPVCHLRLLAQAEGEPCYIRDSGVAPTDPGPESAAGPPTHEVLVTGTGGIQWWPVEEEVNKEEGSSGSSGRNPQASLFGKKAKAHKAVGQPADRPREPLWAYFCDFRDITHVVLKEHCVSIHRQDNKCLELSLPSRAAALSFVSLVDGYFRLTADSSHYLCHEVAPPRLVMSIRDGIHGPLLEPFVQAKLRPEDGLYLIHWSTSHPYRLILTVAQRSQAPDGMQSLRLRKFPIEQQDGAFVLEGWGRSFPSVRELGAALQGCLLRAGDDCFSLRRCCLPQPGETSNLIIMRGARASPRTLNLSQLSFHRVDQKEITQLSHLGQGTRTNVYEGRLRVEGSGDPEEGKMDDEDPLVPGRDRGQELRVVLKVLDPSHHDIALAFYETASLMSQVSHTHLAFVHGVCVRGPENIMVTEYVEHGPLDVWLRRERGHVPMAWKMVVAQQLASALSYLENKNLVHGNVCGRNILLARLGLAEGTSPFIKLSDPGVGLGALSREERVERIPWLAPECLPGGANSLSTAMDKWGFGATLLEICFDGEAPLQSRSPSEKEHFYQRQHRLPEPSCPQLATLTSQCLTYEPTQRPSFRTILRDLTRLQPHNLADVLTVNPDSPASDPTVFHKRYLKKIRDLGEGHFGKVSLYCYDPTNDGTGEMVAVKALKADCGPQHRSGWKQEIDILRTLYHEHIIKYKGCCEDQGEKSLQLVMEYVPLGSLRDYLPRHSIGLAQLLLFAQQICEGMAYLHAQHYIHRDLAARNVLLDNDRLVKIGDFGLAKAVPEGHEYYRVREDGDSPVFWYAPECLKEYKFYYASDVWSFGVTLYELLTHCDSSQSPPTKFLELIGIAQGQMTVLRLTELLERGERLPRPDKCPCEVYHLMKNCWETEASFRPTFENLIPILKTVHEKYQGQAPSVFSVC

The inhibition is the change of the read-out against control, counted positive when it falls. As to `CN(c1ncnc2[nH]ccc12)C1CN(C(=O)CN=[N+]=[N-])CC12CC2` (stereo not drawn) [Example 54, 2-azido-1-(7-(methyl(7H-pyrrolo[2,3-d]pyrimidin-4-yl)amino)-5-azaspiro[2.4]heptan-5-yl)ethan-1-one], the inhibition at 1 µM came to 72% in test [1], 94% in test [2], 60% in test [3] and 73% in test [4].
With `CC(=O)NCC(=O)N1CC(N(C)c2ncnc3[nH]ccc23)C2(CC2)C1` (stereo not drawn) [Example 56, N-(2-(7-(methyl(7H-pyrrolo[2,3-d]pyrimidin-4-yl)amino)-5-azaspiro[2.4]heptan-5-yl)-2-oxoethyl)acetamide], the inhibition at 1 µM is -10% in test [1], 9% in test [2], -37% in test [3] and 9% in test [4].
For `CNC(=O)CC(=O)N1CC(N(C)c2ncnc3[nH]ccc23)C2(CC2)C1` (stereo not drawn) [Example 57, N-methyl-3-(7-(methyl(7H-pyrrolo[2,3-d]pyrimidin-4-yl)amino)-5-azaspiro[2.4]heptan-5-yl)-3-oxopropanamide], the inhibition at 1 µM in test [1] is 11%; in test [2], 55%; in test [3] it was 7%; in test [4], -9%.
On to `CN(c1ncnc2[nH]ccc12)C1CN(C(=O)CCN)CC12CC2` (stereo not drawn) [Example 58, 3-amino-1-(7-(methyl(7H-pyrrolo[2,3-d]pyrimidin-4-yl)amino)-5-azaspiro[2.4]heptan-5-yl)propan-1-one], for which the inhibition at 1 µM in test [1] was -4%; in test [2] it was 34%; in test [3], 2%; in test [4] it was -9%.
The like results for `CN(c1ncnc2[nH]ccc12)C1CN(C(=O)Cn2ccnc2)CC12CC2` (stereo not drawn) [Example 59, 2-(1H-imidazol-1-yl)-1-(7-(methyl(7H-pyrrolo[2,3-d]pyrimidin-4-yl)amino)-5-azaspiro[2.4]heptan-5-yl)ethan-1-one] were, in that order, -8%, 72%, -17% and 20%.
The like results for `CN(c1ncnc2[nH]ccc12)C1CN(C(=S)CC#N)CC12CC2` (stereo not drawn) [Example 60, 3-(7-(methyl(7H-pyrrolo[2,3-d]pyrimidin-4-yl)amino)-5-azaspiro[2.4]heptan-5-yl)-3-thioxopropanenitrile] were, in that order, 0%, 96%, -3% and -14%.
The matching figures for `CC(C)COC(=O)N1CC(N(C)c2ncnc3[nH]ccc23)C2(CC2)C1` (stereo not drawn) [Example 61, isobutyl 7-(methyl(7H-pyrrolo[2,3-d]pyrimidin-4-yl)amino)-5-azaspiro[2.4]heptane-5-carboxylate]: 22%, 85%, -9% and 29%.
For `CN(c1ncnc2[nH]ccc12)C1CN(S(=O)(=O)CCN)CC12CC2` (stereo not drawn) [Example 63, N-(5-((2-aminoethyl)sulfonyl)-5-azaspiro[2.4]heptan-7-yl)-N-methyl-7H-pyrrolo[2,3-d]pyrimidin-4-amine], the inhibition at 1 µM in test [1] was 29%; in test [2], 91%; in test [3] it was 43%; in test [4] it was 7%.
The like results for `CCC(=O)N1C[C@@H](N(C)c2ncnc3[nH]ccc23)C2(CC2)C1` [Example 64, (S)-1-(7-(methyl(7H-pyrrolo[2,3-d]pyrimidin-4-yl)amino)-5-azaspiro[2.4]heptan-5-yl)propan-1-one] were, in that order, 0%, 16%, -9% and -1%.
